Source: patent US8987263B2, “Basic esters of fatty alcohols and their use as anti-inflammatory or immunomodulatory agents” (priority 2002, dated 2015)
Where two headings read alike, the source gives them in different places.

Assays:
[1] = test system: delayed-type hypersensitivity (DTH) reaction; assay: Oxazolone-induced DTH skin reaction, mouse ear-swelling test; type: in vivo, BALB/c mice; conditions: for reduction of inflammation in the DTH model: 0.5, 1, 2 and 4 mg in 40 μl 30 min after challenge, dexamethazone 2 mg/40 μl, FIG. 5; for percent inhibition of DTH reaction: read after 24 hours
Experimental: Delayed-type hypersensitivity (DTH), a localized inflammatory reaction induced by cytokines secreted by certain TH cells when they encounter certain types of antigens, is an established experimental model for skin inflammation.
As a first step, DTH reactions were induced in the skin of 8-week-old female BALB/c mice. The mice were sensitized by topical application of 200 μl of a 2% oxazolone (4-ethoxymethylene-2-phenyl-2-oxazolin-5-one; Sigma, St. Louis, Mo.) solution in acetone/olive oil (4:1, vol/vol) to the shaved abdomen of the mice. Six days after sensitization, one ear of each mouse was challenged by topical application of 20 μl of a 0.5% oxazolone solution.
Mice were induced with DTH as in Example 17. […] In addition, a positive control of dexamethazone (2 mg/40 μl) was administered. A group of DTH induced mice was also treated with (4-Methyl-piperazin-1-yl)-acetic acid ethyl ester HCl (negative control.)

adjuvant arthritis (AA) = conditions: Lewis rats
[2] = test system: experimental autoimmune encephalomyelitis (EAE); conditions: DA rats; 40 mg IV on day of immunization; vs untreated control; FIG. 2
EAE [3] = conditions: Lewis rats
Experimental: EAE is induced in 7-9 weeks old female Lewis rats by injecting each foot pad with 25 μg of guinea MBP (50 μg total) in CFA (Sigma). The disease develops about 12 days after immunization and is characterized by paralysis of various degrees due to inflammation of the central nervous system. The rats are scored for paralysis on a scale of 0-4, as described above in Example 13.
EAE was induced in 8-week-old female Lewis rats as described in Example 15 above with guinea pig MBP in CFA.
(§1) The rats were scored for EAE on a severity scale of 0-4 as described above.
as §1
Rats were treated with Compound 9 (100 mg/Kg) per os. The rats were scored for EAE on a severity scale of 0-4 as described above.

EAE [4] = type: in vivo; conditions: CSJL/F1 mice, GA 5.0 mg/mouse, Compound 3 0.5 mg/mouse
Experimental: (§2) EAE was tested in CSJL/F1 mice, immunological response was tested in C57BL/J6 mice. Healthy, specific pathogen-free, female CSJLF/1 and male C57BL/J6 mice, were obtained from Harlan Animal Breeding Center, Jerusalem, Israel. The mice were 9-week old at the initiation of the study, weighing 20 g±15%.
(i) The mice were divided into 4 test groups as shown below:
For immunization of group 1, a GA solution in PBS (100 mg/mL) was diluted 1:2 in IFA to yield a final concentration of 50 mg/mL for injection of 5.0 mg/mouse GA (0.1 ml). The GA+IFA mixtures were transferred into a syringe (2.5 mL) connected to a second syringe through a Luer lock bridge and mixed well by transferring the material from one syringe to another for about 10 minutes until the material was well emulsified.
EAE was induced by injecting the encephalitogenic agent consisting of MSCH and commercial CFA containing Mycobacterium tuberculosis H37Ra to the foot-pads of the animals and pertussis toxin IV.
They were weighed before immunization and once a week thereafter until the termination of the study. Ten days after induction of EAE, the mice were examined for EAE clinical signs and scored. The EAE clinical signs were observed and scored from the 9th day post-EAE induction until the termination of the experiment according to the following five-graded scale to assess clinical severity: 0, normal behavior; 1, weight loss; 2, tail weakness; 3, hind legs hypotonia and weakness; 4, hind legs paralysis; 4, severe total paralysis; 5, impaired respiration and/or convulsions and/or full paralysis or death.
Calculation of mortality: The number of sick and dead animals in each group was determined, and the incidence of disease and mortality rate was calculated as follows: […]
Calculation of percent activity: The percentage activity according to mortality was calculated as follows: […]
Calculation of mean duration of disease and onset of disease: The mean duration of the disease and onset of disease expressed in days was calculated.
Calculation of the mean maximal score and percent inhibition: The maximal scores of each of the 10 mice in the test group were summed.
The mean maximal score (MMS) of the group was calculated as follows: […]
The percent inhibition was calculated as follows: […]
Calculation of the mean group score and percent inhibition: The scores of each of the 10 mice in the test group was summed.
The mean group score (GMS) of the group was calculated as follows: […]

[5] = type: in vivo
Experimental: The mice were scored according to following chart: 0—normal behavior; 1—slight toxic signs (piloerection); 2—moderate toxic signs (partial eye lid closure, hunched posture, hypoactivity, apathy); 3—severe toxic signs (ataxia, convulsions, gasping respiration, paralysis, unconscious); 4—death. Mice were weighed before immunization and on the day of the termination of the study. […] The spleens were weighed and spleen/body weight ratio was calculated.

[6] = test system: Spleen Cells of GA Immumized Mice; assay: IL-2 secretion from spleen cells of immunized mice (ELISA); type: cell-based, C57BL/J6 mice; design: IL-2 Secretion from 5 × 10^6 Spleen Cells: unit not given here
Experimental: as §2
(i) The mice were divided into 6 test groups as shown below:
Mice were immunized 10 days prior to spleen collection.
A solution of GA in PBS (final GA concentration of 1.5 mg/mL, for dose of 75 μg/mouse) was diluted in CFA to yield a final concentration of 0.75 mg/mL for dose of 75 μg/mouse GA. The mixtures (GA+CFA) were transferred into a syringe (2.5 mL) connected to a second syringe through a Luer lock bridge and mixed well by transferring the material from one syringe to another for about 10 minutes until the material is well emulsified.
GA (20 mg vial) was dissolved in PBS to yield 20 mg/mL solution, then further diluted in PBS to yield a final GA concentration of 1.5 mg/mL for dose of 75 μg/mouse. Equal volumes of Compound 3 and GA or PBS for control group were mixed.
Spleens were collected and pooled for each group in sterile RPMI medium. Cells were extracted resuspended in enriched DCCM1 medium and counted. […] Supernatants were collected and tested for levels of cytokines secretion.
(vii) Detection of cytokine secretion in primary cultures from spleens was performed employing ELISA. Cells were activated in-vitro and IL-2 secretion levels were detected using commercial kits according to the provider's instructions.

[7] = 0.2 mg per os every day from EAE induction
[8] = 1 mg per os every day from EAE induction
[9] = 2 mg per os every day from EAE induction
[10] = 10 mg per os every day from EAE induction
[11] = 20 mg per os every day from EAE induction

Compound: C[C@@H]1C[C@H]2[C@@H]3CCC4=CC(=O)C=C[C@]4(C)[C@@]3(F)[C@@H](O)C[C@]2(C)[C@@]1(O)C(=O)CO [dexamethazone, reference compound]
- reduction of inflammation in the DTH model [1]: positive results in reducing inflammation

Compound: CCOC(=O)CN1CCN(C)CC1.Cl [negative control, (4-Methyl-piperazin-1-yl)-acetic acid ethyl ester HCl, reference compound]
- reduction of inflammation in the DTH model [1]: did not show any positive results

Compound: CCCCCCCC/C=C\CCCCCCCCOC(=O)c1ccc(CN(C)C)cc1.Cl [Compound 5, 4-dimethylaminomethyl-benzoic acid octadec-(Z)-9-enyl ester HCl]
- reduction of inflammation in the DTH model [1]: inhibit DTH Skin Reaction

Compound: CCCCCCCC/C=C\CCCCCCCCOC(=O)CN(C)C [Compound 1, N,N-Dimethylamino-acetic acid octadec-(Z)-9-enyl ester]
- protection against the inflammation caused by AA (AA score 0-16) (adjuvant arthritis (AA); 40 mg IV on day 0 or on day 14 after onset of AA, FIG. 1): could protect the rats against the inflammation caused by AA
- prevention of paralysis (EAE score 0-4) [2]: could prevent the paralysis to a significant degree

Compound: CCCCCCCC/C=C\CCCCCCCCOC(=O)C(N)c1ccccc1.Cl (stereo not drawn) [Compound 11, α-Amino-α-phenyl-acetic acid octadec-(Z)-9-enyl ester HCl salt]
- reduction of inflammation in the DTH model [1]: inhibit DTH Skin Reaction

Compound: CCCCCCCC/C=C\CCCCCCCCOC(=O)CN1CCN(C)CC1.O=C(O)C(O)C(O)C(=O)O [Compound 3, (4-Methyl-piperazin-1-yl)-acetic acid octadec-(Z)-9-enyl ester tartrate]
- % inhibition (EAE [3]; [7]): 28%
- Mean Clinic Score (EAE [3]; [7]): 2.1
- % inhibition (EAE [3]; [8]): 28%
- Mean Clinic Score (EAE [3]; [8]): 2.1
- % inhibition (EAE [3]; [9]): 14%
- Mean Clinic Score (EAE [3]; [9]): 2.5
- % inhibition (EAE [3]; [10]): 28%
- Mean Clinic Score (EAE [3]; [10]): 2.1
- % inhibition (EAE [3]; [11]): 41%
- Mean Clinic Score (EAE [3]; [11]): 1.7
- protection against EAE (EAE [3]; administered subcutaneously (10-200 mg, day 7 before induction) or orally): could protect the rats against EAE
- effect on EAE (EAE [3]; per os every other day from day of EAE induction (not shown)): similarly effective
- GMS (group mean score) Value ± S.D. (EAE [4]): 3.3 ± 0.6
- MMS (mean maximal score) Value ± S.D. (EAE [4]): 4.7 ± 0.5
- Mean Duration (EAE [4]): 4.7 ± 0.5 days
- Mean onset (EAE [4]; SC immunization 11 days before EAE induction): 10.3 ± 0.5 days
- GMS inhibition (inh.* 3) (EAE [4]; vs PBS control): 3.2%
- MMS inhibition (inh.* 2) (EAE [4]; vs PBS control): .0%
- effect on mice weight ([5]; Compound 3 50 and 500 μg/mouse, with or without GA 75 μg/mouse): no adverse effect
- signs of immunosuppression ([5]; Compound 3 with or without GA): no signs of immunosuppression
- effect on non-specific Con-A activation (IL-2) ([6]; Con A as non-specific activator): no effect
- IL-2 Secretion from 5 × 10^6 Spleen Cells ([6]; GA activator conc. 2.5 (mg/mL), Comp. 3 50 μg/m (GA 75 μg/m where combined)): UQL
- IL-2 Secretion from 5 × 10^6 Spleen Cells ([6]; GA activator conc. 2.5 (mg/mL), Comp. 3 500 μg/m (GA 75 μg/m where combined)): UQL
- IL-2 Secretion from 5 × 10^6 Spleen Cells ([6]; GA activator conc. 25.0 (mg/mL), Comp. 3 50 μg/m (GA 75 μg/m where combined)): UQL
- IL-2 Secretion from 5 × 10^6 Spleen Cells ([6]; GA activator conc. 25.0 (mg/mL), Comp. 3 500 μg/m (GA 75 μg/m where combined)): 7.9
- IL-2 Secretion from 5 × 10^6 Spleen Cells ([6]; activator Con A 2.5 (mg/mL), Comp. 3 50 μg/m (GA 75 μg/m where combined)): 426.8
- IL-2 Secretion from 5 × 10^6 Spleen Cells ([6]; activator Con A 2.5 (mg/mL), Comp. 3 500 μg/m (GA 75 μg/m where combined)): 426.8
- IL-2 Secretion from 5 × 10^6 Spleen Cells ([6]; activator conc. 0, Comp. 3 50 μg/m (GA 75 μg/m where combined)): UQL
- IL-2 Secretion from 5 × 10^6 Spleen Cells ([6]; activator conc. 0, Comp. 3 500 μg/m (GA 75 μg/m where combined)): UQL
- IL-2 secretion from spleen cells in response to GA ([6]; immunized with Compound 3 without GA, 50 and 500 μg/mouse): not elevated
- protection against AA (adjuvant arthritis (AA); 10, 50, 100 or 200 mg SC at day -7 before induction, FIG. 6): could protect the rats against AA
- percent inhibition of DTH reaction ([1]; 1 mg topical on challenged ear 30 min after challenge): 12.5%
- percent inhibition of DTH reaction ([1]; 2 mg topical on challenged ear 30 min after challenge): 8%

Compound: CCCCCCCC/C=C\CCCCCCCCOC(=O)CN1CCNCC1.O=C(O)C(O)C(O)C(=O)O [Compound 9, Piperazin-1-yl-acetic acid octadec-(Z)-9-enyl ester bitartrate]
- protection against EAE (EAE [3]; 100 mg/Kg administered orally, FIG. 9): could protect the rats against EAE
- % Sick rats (EAE [3]; 100 Mg/Kg per os): 100%
- % inhibition (EAE [3]; 100 Mg/Kg per os): 31.4%
- Mean Clinic Score (EAE [3]; 100 Mg/Kg per os): 1.93 ± 0.45
- Mean onset (EAE [3]; 100 Mg/Kg per os): 11.5
- reduction of inflammation in the DTH model [1]: inhibit DTH Skin Reaction

Compound: glatiramer acetate [GA, reference compound]
- IL-2 Secretion from 5 × 10^6 Spleen Cells ([6]; GA activator conc. 2.5 (mg/mL), mice immunized with GA 75 μg/m, no Comp. 3): 47.9
- IL-2 Secretion from 5 × 10^6 Spleen Cells ([6]; GA activator conc. 25.0 (mg/mL), mice immunized with GA 75 μg/m, no Comp. 3): 124.3
- IL-2 Secretion from 5 × 10^6 Spleen Cells ([6]; activator Con A 2.5 (mg/mL), mice immunized with GA 75 μg/m, no Comp. 3): 419.6
- IL-2 Secretion from 5 × 10^6 Spleen Cells ([6]; activator conc. 0, mice immunized with GA 75 μg/m, no Comp. 3): UQL
